Laboratory results: patent publication US20240100006A1, “COMPOSITIONS AND METHODS USING AT LEAST ONE GLYCINE OR DERIVATIVE THEREOF AND AT LEAST ONE LARGE NEUTRAL AMINO ACID AND/OR CATIONIC AMINO ACID OR PRECURSOR THEREOF” (SOCIETE DES PRODUITS NESTLE S.A., priority 2020, published 2024)
“Also recorded” adds a separate entry of the source.

System: isolated mitochondria from skeletal muscle of zebrafish
Test: Acute oxidative stress and mitochondrial high-resolution respirometry
Assay type: in vivo
Procedure: Following the stress, fish were divided into controls and treatment groups. […] Fish exposed to the glycine and glucose treatment were incubated in water containing the compound of interest for 2 h at 28° C. at the following doses: 50, 200, 450 μM (Sigma-Aldrich) for glycine; 500 μM and 5 mM (Sigma-Aldrich) for glucose; 450 μM for glycine, arginine and methionine (Sigma-Aldrich). […] After BCA quantification of protein concentration, 150 μg of crude extract were used for high-resolution respirometry quantification. […] Up to three 02k instruments ([…]) were used in parallel. Experiments were performed at 28° C. in modified MiR05 (110 mM sucrose, 0.5 mM EGTA, 3 mM MgCl2, 20 mM taurine, 10 mM KH2PO4, 20 mM HEPES and 0.1% BSA essentially fatty acid free). Respiration of isolated mitochondria was determined using substrate-uncoupler-inhibitor titration (SUIT) protocols (Pesta and […], Methods Mol Biol. 2012; 810:25-58) with modifications. […] CI respiration was calculated as the difference between total respiration (CI+CII) and the addition of CI inhibitor rotenone (0.5 μM); CII respiration was calculated as the difference between inhibited CI respiration and the addition of CII inhibitor malonic acid (5 mM). Total respiration (CI+CII, Tot resp) was assessed as the difference of the respiration in presence of all substrates and the total inhibition of CI and CII.

Compound | Complex I dependent respiration (acute oxidative stress inducer, 3 μM in water for 2 h at 28° C., FIG. 3) | mitochondrial respiration (O2 consumption; Complex I dependent respiration) after acute oxidative stress (adult AB zebrafish, 3 μM menadione 2 h at 28° C., then compound in water 2 h, glycine 50, 200, 450 μM, glucose 500 μM and 5 mM, FIG. 3, n=3 per condition)
CC1=CC(=O)c2ccccc2C1=O [menadione, Menadione, reference compound] | decreasing Complex I dependent respiration | –
NCC(=O)O [glycine] | – | restores respiratory levels; also recorded: able to restore mitochondrial respiration
